# From PMC7876056, “Population Pharmacokinetic Analysis of Yimitasvir in Chinese Healthy Volunteers and Patients With Chronic Hepatitis C Virus Infection” (Frontiers in Pharmacology, 2021)
# Where “and” joins values, the source holds several entries; their conditions need not be identical. Identical values can stand only once. Like-named read-outs stand apart in the source and are kept apart here.
# Legend:
# [1] = Population pharmacokinetic model (Phoenix NLME, FOCE-ELS) of yimitasvir in Chinese healthy volunteers and HCV infection patients; assay type: in vivo, human
# Experimental: The current population PK analysis of yimitasvir was performed using rich and sparse PK samples collected from six clinical pharmacology trials [4 phase 1 ([Zhao et al., 2019]), 1 phase 1b ([Zhang et al., 2018]) and 1 phase 2 studies] in Chinese healthy volunteers and HCV-infected patients. Rich sampling entailed serial blood sampling at defined time points, and sparse sampling (single sample) only in phase 2 study entailed blood collection at every study visits. Patients with genotype 1 HCV infection were eligible, while patients with prior use of direct-acting antiviral agents (DAA) for HCV infection treatment were excluded in phase 1b and phase 2 studies.
# A fully validated liquid chromatography-tandem mass spectrometry (LC-MS/MS) method determining yimitasvir concentration in phase 1 and phase 1b studies had been reported elsewhere ([Zhang et al., 2018]; [Zhao et al., 2019]).
# Plasma concentration of yimitasvir in phase 2 study was analyzed using a validated LC-MS/MS method equipped with a Shimadzu LC-30AD liquid chromatography-SCIEX API6500 mass spectrometer. Chromatographic retention and separation were achieved on a XBridge Peptide BEH C18, 50 × 2.1 mm, 3.5 μm column. Gradient elution was used with 2 mM ammonium acetate in water with 0.1% formic acid as mobile phase A and acetonitrile:methanol (30:70, v:v) as mobile phase B at a flow rate of 0.5 ml min^−1. The column temperature was maintained at 45°C. Quantitation was accomplished in positive mode with precursor-to-production pairs of m/z 428.5→315.3 for yimitasvir and m/z 432.5→319.5 for the internal standard d8-DAG (isotope-labelled yimitasvir), respectively.
# Population pharmacokinetic analysis of yimitasvir was performed by Phoenix NLME software (Version 8.1, Certara) using the first-order conditional estimation-extended least squares (FOCE-ELS) method.
# The structural model was first tested by fitting a one-compartment or two-compartment model to the log-transformed PK data. Different absorption models including first-order absorption with or without a lag time, sequential zero-first order absorption, transit absorption and saturable Michaelis-Menten absorption model, were also tested. The optimal structural model was selected based on the Akaike Information Criteria (AIC), minimization success, visual inspection of goodness-of-fit plots and individual fit.
# Inter-subject variability was estimated by exponential model for PK parameters as follows (Eq. 1): θi=θTV×e^ηi, (1) where θi is the parameter estimation for the ith individual, θTV is the typical value of the parameter estimation in the population, ηi is a random variable which assumed to be normally distributed with a mean of 0 and a variance of ω^2. Proportional error model and proportional plus additive error model were tested as residual error models.
# Sigmoidal maximum effect (Emax) (Eq. 2) and linear models (Eq. 3) were tested to quantify the relationship between bioavailability and dose: {F=θF ,Dose≤100 mgF=θF−Fmax×(Dose−100)/(F50+(Dose−100)),Dose>100 mg, (2) where θF is the bioavailability in individuals who received ≤100 mg yimitasvir, which was fixed to 1. Fmax is the maximal reduction in bioavailability and F50 is the dose associated with a half-maximal reduction in bioavailability. {F=θF ,Dose≤100 mgF=θF −Alpha×(Dose−100)/100,Dose>100 mg, (3) where Alpha is a slope term determining the relative change in bioavailability for each 100 mg increase in yimitasvir dose.
# Subsequently, different covariates were tested using a stepwise forward inclusion [a decrease in objective function value (OFV) of > 6.63, p < 0.01] and a stricter backward exclusion procedure (an increase in OFV of > 10.83, p < 0.001). […]
# [2] = Simulation of steady state exposure from the final population PK model (sensitive plot); assay type: in vivo, human; conditions: for AUC / Cmax: human, plasma, oral, 100 mg, 100 mg once daily for 12 weeks
# Experimental: Individual empirical Bayes estimates PK parameters from the final model were used to predict the steady state exposure of yimitasvir. The simulated dosing regimen was yimitasvir 100 mg once daily for 12 consecutive weeks. […] The steady state exposure was calculated using PK parameters with incorporation of the isolated effect from the covariate and with other unaffected PK parameters fixed to the typical value.
# [3] = system: CYP 2B6; conditions: cited from earlier work
# [4] = set-up: method as in Zhang et al., 2018; conditions: patients, ref Zhang et al., 2018, cited from earlier work
# [5] = cited from earlier work
# [6] = final model estimate (RSE%), food = 2, high-fat meal
# [7] = in the evening after dinner more than 4 h
# [8] = high-fat meal, food effect study, ref Zhao et al., 2019
structure (smiles),measurement,setting,value
COC(=O)NC(C(=O)N1CCCC1c1ncc(-c2ccc(-c3ccc(-c4ccc5nc(C6CCCN6C(=O)C(NC(=O)OC)C(C)C)[nH]c5c4)c4c3C3CCC4C3)cc2)[nH]1)C(C)C (stereo not drawn) [yimitasvir],Relative bioavailability of 200 mg to 100 mg,[1]; according to the final model,87.1%
same,Relative bioavailability of 400 mg to 100 mg,[1]; according to the final model,61.3%
same,"CL/F ∼ ALT (covariate coefficient, power)",[1]; bootstrap mean,−0.0955 (−15.3)
same,CL/F ∼ Female (covariate coefficient),[1]; bootstrap mean,−0.250 (−14.6)
same,F ∼ Food1 (covariate coefficient),[1]; bootstrap mean,−0.312 (−34.9)
same,F ∼ Food2 (covariate coefficient),[1]; bootstrap mean,−0.473 (−19.8)
same,Ka ∼ Food1 (covariate coefficient),[1]; bootstrap mean,−1.72 (−10.5)
same,Ka ∼ Food2 (covariate coefficient),[1]; bootstrap mean,−2.43 (−7.4)
same,Random effect CL/F (inter-individual variability),[1]; bootstrap mean,0.483 (5.8)
same,Random effect CL/F ∼ V1/F (covariance),[1]; bootstrap mean,0.562 (8.1)
same,Random effect V1/F (inter-individual variability),[1]; bootstrap mean,0.729 (11.0)
same,Residual error σ (proportional),[1]; bootstrap mean,0.304 (3.4)
same,Td ∼ Patient (covariate coefficient),[1]; bootstrap mean,−0.403 (−27.9)
same,CL/F,"[1]; bootstrap mean (n = 1,000)",13.8 (3.7) l h^−1
same,Ka,"[1]; bootstrap mean (n = 1,000)",1.38 (13.7) h^−1
same,Q/F,"[1]; bootstrap mean (n = 1,000)",4.04 (16.8) l h^−1
same,Td,"[1]; bootstrap mean (n = 1,000)",2.22 (7.2) h
same,V1/F,"[1]; bootstrap mean (n = 1,000)",189 (5.6) l
same,V2/F,"[1]; bootstrap mean (n = 1,000)",59.1 (9.1) l
same,Effect of age and BW on PK properties,[1]; covariate screening,no effect
same,Decrease of bioavailability (F) for each 100 mg dose increase,"[1]; dose > 100 mg, linear model",12.9%
same,Covariance of inter-individual variability of CL/F and V1/F,[1]; final model,56.5%
same,Inter-individual variability for CL/F,[1]; final model,48.5%
same,Inter-individual variability for V1/F,[1]; final model,73.6%
same,CL/F ∼ Female (covariate coefficient),[1]; final model estimate (RSE%),−0.251 (−14.2)
same,Q/F,[1]; final model estimate (RSE%),3.96 (14.7) l h^−1
same,Random effect CL/F (inter-individual variability),[1]; final model estimate (RSE%),0.485 (3.8)
same,Random effect CL/F ∼ V1/F (covariance),[1]; final model estimate (RSE%),0.565 (5.1)
same,Random effect V1/F (inter-individual variability),[1]; final model estimate (RSE%),0.736 (6.9)
same,Residual error σ (proportional),[1]; final model estimate (RSE%),0.305 (0.7)
same,Td ∼ Patient (covariate coefficient),[1]; final model estimate (RSE%),−0.416 (−10.7)
same,V2/F,[1]; final model estimate (RSE%),58.6 (6.9) l
same,"CL/F ∼ ALT (covariate coefficient, power)","[1]; final model estimate (RSE%), baseline ALT normalised to median",−0.0950 (−21.2)
same,Ka,"[1]; final model estimate (RSE%), first-order absorption rate, typical healthy male volunteer, ALT 31.6 IU l^−1, fasted",1.31 (7.2) h^−1
same,Ka ∼ Food1 (covariate coefficient),"[1]; final model estimate (RSE%), food = 1, evening, fasted at least 4 h after dinner",−1.71 (−5.5)
same,F ∼ Food1 (covariate coefficient),"[1]; final model estimate (RSE%), food = 1, fasted at least 4 h",−0.341 (−26.3)
same,F ∼ Food2 (covariate coefficient),[1]; [6],−0.485 (−31.2)
same,Ka ∼ Food2 (covariate coefficient),[1]; [6],−2.40 (−3.7)
same,Td (duration of zero-order absorption),"[1]; final model estimate (RSE%), healthy volunteers",2.17 h and 2.17 (4.4) h
same,CL/F (apparent oral clearance),"[1]; final model estimate (RSE%), typical healthy male volunteer, ALT 31.6 IU l^−1, fasted",13.8 l h^−1 and 13.8 (4.1) l h^−1
same,Higher CL/F in male subjects than females,"[1]; human, in vivo",22.2%
same,Vd/F,"[1]; human, plasma, oral, final model estimate (RSE%), typical healthy male volunteer, ALT 31.6 IU l^−1, fasted, read-out: V1/F (central volume of distribution)",188 L
same,Zero-order absorption duration (Td),[1]; patients,1.43 h
same,Decrease of F by high-fat meal,[1]; vs fasted,38.5%
same,Decrease of Ka by high-fat meal,[1]; vs fasted,90.9%
same,"Decrease in Cmax,ss","[2]; after a high-fat meal, model simulated",58.9%
same,Magnitude of ALT on the steady-state exposure,[2]; healthy volunteers with extreme ALT values (5th and 95th percentiles) relative to typical,~30%
same,AUC,"[2]; empirical Bayes estimates, lower end of range, read-out: AUCss, 5th percentile of the population",3.26 µg·h/mL
same,AUC,"[2]; empirical Bayes estimates, upper end of range, read-out: AUCss, 95th percentile of the population",17.4 µg·h/mL
same,Cmax,"[2]; lower end of range, read-out: Cmax,ss, 5th percentile of the population",0.182 µg/mL
same,Cmax,"[2]; upper end of range, read-out: Cmax,ss, 95th percentile of the population",1.27 µg/mL
same,Decrease in AUCss,[2]; [7],28.9%
same,"Decrease in Cmax,ss",[2]; [7],46.1%
same,"Decrease in Ctrough,ss",[2]; [7],10.0%
same,"Steady state exposures (AUCss, Ctrough,ss, Cmax,ss) higher in female than male subjects",[2]; in vivo,15.1–54.0%
same,AUC,"[2]; male, typical subject: male, healthy volunteer, fasted 10 h, ALT=31.6 IU l^-1, read-out: AUCss, base",7.25 µg·h/mL
same,Cmax,"[2]; male, typical subject: male, healthy volunteer, fasted 10 h, ALT=31.6 IU l^-1, read-out: Cmax,ss, base",0.54 µg/mL
same,Difference in exposures between patients and healthy volunteers,[2]; steady state,no difference in exposures
same,"Decrease in Ctrough,ss",[2]; with a high-fat meal,3.52%
same,Inhibition of CYP2B6,[3],does not inhibit
same,Dose proportionality of exposure,[4]; 30 to 200 mg administered during the night (4 h after dinner),near dose-proportional increase in exposure
same,Median time to peak concentration (Tmax),[4]; evening after dinner for more than 4 h,4 to 12 h
same,Decrease in AUC,[5]; [8],~50%
same,Decrease in Cmax,[5]; [8],~63%
same,Tmax,"[5]; high-fat meal, ref Zhao et al., 2019",5 to 12 h
same,Terminal half-life (t1/2),"[5]; human, in vivo",13.4 to 19.7 h
same,Dose proportionality of exposure,"[5]; multiple ascending dose study, 100–400 mg once daily for seven days",less than dose-proportional
same,Steady state achieved,[5]; once daily dosing regimen,≤ 5 days
same,Accumulation ratio,[5]; once daily dosing,1.32–1.34
same,Major route of elimination,"[5]; ref Zhao et al., 2019",fecal excretion of parent drug
same,Dose proportionality of AUC and Cmax,"[5]; single ascending dose study, healthy volunteers, ref Zhao et al., 2019",increased less than proportionally
same,Recovered in urine as the parent drug,"[5]; through 7 days post-dose, ref Zhao et al., 2019",Less than 0.04%
